Test results reported in patent US20150072315A1, “Formulations and kit for biometric deposition of apatite on teeth” (Heraeus Kulzer GmbH, priority 2013, published 2015).

Key:
[1] = solubility and appearance of pre-treatment, calcium and phosphate solutions made with the acid
Protocol: For component A containing phosphate ions, a solution containing 29.5 g NaH2PO4, 33 g Olaflur, and 27.0 g lactic acid was produced. […] A total of 24 ml of the solution and 6 g glycerol and 10 g of 300 Bloom pork rind gelatine were processed while heating to form a viscous solution. A small amount of liquid was placed in a template with a wall thickness of 500 μm and exposed to 2 bar of pressure. After solidification, the strips were removed from the template and cut into 1×1 cm squares.
For component B containing calcium ions, a calcium chloride solution containing 29.4 g calcium chloride dihydrate and 6.3 g lactic acid was prepared. […] The solution was topped up to 200 ml with de-ionized water. In order to produce the gel, 21.6 g of the solution and 8.24 g glycerol and 8 g calcium sulfate and 13.6 g 300 Bloom gelatine were mixed and heated. The liquid gel was then spread with a squeegee to a thickness of 1 mm or pressed in a template with a wall thickness of 1 mm. After solidification, the strips were cut into 1×1 cm squares. For the pre-treatment solution (mouthwash), a 0.1 mol Tris buffer was added to a 1 molar calcium chloride solution and the pH was adjusted to 9.0.

[2] = staining test for dentine-sealing effect (rhodamine, colorimetry)
Protocol: The components were produced as described in example 1.
After the application of the gels, a staining test was used to check if a dentine-sealing effect occurred. Acids that were insoluble at the requisite conditions were not tested further.
Principle of the staining test: The samples are measured by colorimetry on the coated and uncoated side after staining with 1% rhodamine solution using a Spectraflash 600 Plus two-channel spectrometer with the CIE L*a*b* system and aperture 3 mm X4SAV. The difference in colour is reported as the delta value (colour difference).
Tris buffer (pH value: 7.2 to 9.0) was used in the Ca gel. A sodium acetate buffer (pH value: 3.7 to 5.7) was used in the P gel.

[3] = colour difference coated vs uncoated side after staining with 1% rhodamine solution, CIE L*a*b*
[4] = as E1, P gel combined with acetic acid-Ca gel

| SMILES | deposition after application of the kit [2] | Functional test (delta E) [2, 3] | also measured |
| --- | --- | --- | --- |
| O=C(O)CC(O)C(=O)O (stereo not drawn) [Malic acid] | show deposition | 42.41 ± 5.39 | solubility of the calcium salt of the acid [1]: sufficiently soluble; Pre-treatment solution: solubility/appearance ([1]; pH 8.5): precipitation; Pre-treatment solution: solubility/appearance ([1]; pH 9.02): pH 9.02 clear; Pre-treatment solution: solubility/appearance ([1]; pH 9.53): pH 9.53 clear |
| O=C1O[C@H]([C@@H](O)CO)C(O)=C1O [Ascorbic acid] | show deposition | 56.64 ± 9.85 | – |
| CC(O)C(=O)O (stereo not drawn) [Lactic acid] | show deposition | 49.83 ± 4.02 | – |
| O=C(O)c1ccccc1O [Salicylic acid] | – | – | solubility of the acid (merged cell spanning the solution columns) [1]: insoluble |
| O=C(O)c1ccc(C(=O)O)c(C(=O)O)c1 [Trimellitic acid] | – | – | Ca gel solution: solubility/appearance [1]: precipitation; Functional test (delta E) [2, 4]: 42.05 ± 11.24 |
| O=C(O)C(CO)c1ccccc1 (stereo not drawn) [Tropic acid] | – | – | solubility of the acid (merged cell spanning the solution columns) [1]: insoluble |
| N[C@@H](CC(=O)O)C(=O)O [Aspartic acid] | show deposition | 45.96 ± 2.63 | – |
| O=C(O)CO [Glycolic acid] | show deposition | – | Functional test (delta E) [2, 4]: 35.32 ± 4.19 |
